Results published in PubChem BioAssay (NCI).
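Assay format: 96-well plates, 48-hour exposure. GI50 = concentration required for 50% inhibition of growth. The concentration for full growth arrest is given as TGI.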

Experiments:
Assay in all cases: NCI tumour cell line growth inhibition, 48 h
[1] = tested on: CAKI-1 renal
[2] = tested on: SNB-19 CNS
[3] = tested on: SK-MEL-28 melanoma
[4] = tested on: UACC-62 melanoma
[5] = tested on: PC-3 prostate
[6] = tested on: SF-539 CNS
[7] = tested on: MALME-3M melanoma
[8] = tested on: KM12 colon
[9] = tested on: SK-OV-3 ovarian
[10] = tested on: K-562 leukemia

| SMILES | GI50 [1] | TGI [1] | GI50 [2] | TGI [2] | GI50 [3] | TGI [3] | GI50 [4] | TGI [4] | GI50 [5] | TGI [5] | GI50 [6] | TGI [6] | GI50 [7] | TGI [7] | GI50 [8] | TGI [8] | GI50 [9] | TGI [9] | GI50 [10] | TGI [10] |
| --- | --- | --- | --- | --- | --- | --- | --- | --- | --- | --- | --- | --- | --- | --- | --- | --- | --- | --- | --- | --- |
| COc1cc2c3c(n(C)c(=O)c2cc1OC)-c1cc2c(cc1/C3=C\CNCCCN)OCO2 | 0.848 µM | 16 µM | 0.261 µM | 10.4 µM | 2.14 µM | 39.6 µM | 0.214 µM | 1.12 µM | 0.272 µM | 3.16 µM | 0.834 µM | 7.29 µM | 0.144 µM | 0.591 µM | 0.359 µM | 3.93 µM | 1.26 µM | > 88.2 µM | 0.168 µM |  |
| COc1cc(NS(=O)(=O)c2ccc(-c3cnc(C4CC4)o3)cc2)ccc1F | 0.408 µM | 30.6 µM | 0.441 µM | 24.5 µM | 1.77 µM | 23.5 µM | 0.313 µM | 13.8 µM | 0.329 µM | 17 µM | 0.274 µM | 2.18 µM | 0.56 µM | 33.9 µM | 0.277 µM | 18.1 µM | 0.606 µM | 34.6 µM | 0.082 µM | > 100 µM |
| CCN(CC)CCCC(C)Nc1cnc(C(=O)Nc2cccc3ccc(OC)nc23)cn1 (centres undefined) | 1.77 µM | 3.76 µM | 3.11 µM | 10.9 µM | 1.74 µM | 3.13 µM | 1.79 µM | 3.21 µM | 2.83 µM | 10.5 µM | 1.79 µM | 3.21 µM | 1.75 µM | 3.22 µM | 3.17 µM | 11.7 µM | 15 µM | 28.4 µM | 1.8 µM | 6.2 µM |
| Cn1cnc([N+](=O)[O-])c1[Se]c1nc(N)nc2c1ncn2C1OC(CO)C(O)C1O (centres undefined) |  | > 100 µM |  | > 100 µM |  | > 100 µM |  | > 100 µM |  | > 100 µM |  | > 100 µM |  | > 100 µM |  | > 100 µM |  | > 100 µM |  | > 100 µM |
| C=C(C)C1CCC2(C(=O)O)CCC3(C)C(CCC4C5(C)CCC(OC(=O)NCc6ccccc6)C(C)(C)C5CCC43C)C12 (centres undefined) | 1.63 µM | 15.7 µM | 25.3 µM | > 100 µM | 1.08 µM | > 100 µM | 1.9 µM | > 100 µM | 1.2 µM | 95.7 µM | 41.9 µM | > 100 µM | 5.5 µM | 54.1 µM | 2.23 µM | 12.2 µM | 27.8 µM | > 100 µM | 1.67 µM | > 100 µM |
| O=C1/C(=C/c2ccc(O)cc2)CSc2ccc(Cl)cc21 | 21.2 µM | 52 µM | 14.1 µM | 27.4 µM | 4.04 µM | 15.8 µM | 12.2 µM | 26.2 µM | 13.1 µM | 53.8 µM | 16.8 µM | 31.4 µM | 16.6 µM | 38 µM | 3.59 µM | 15.7 µM | 23 µM | 44.6 µM | 2.36 µM | > 100 µM |
| CCc1oc2ccccc2c1C(=O)c1cc(I)c(O)c(I)c1 | 2.3 µM | 10.8 µM | 5.19 µM | 18.9 µM | 8.45 µM | 21.6 µM | 3.32 µM | 16.8 µM | 3.75 µM | 19.5 µM | 2.28 µM | 10.4 µM | 1.41 µM | 7.9 µM | 1.62 µM | 13 µM | 5.46 µM | 18.4 µM | 0.726 µM | 18.8 µM |
| C/C(=N\Nc1ccc(Cl)cn1)c1ccccn1 | 0.0452 µM | 2.64 µM | 0.411 µM | > 100 µM | 0.25 µM | > 100 µM | 0.172 µM | > 100 µM | 0.0464 µM | > 100 µM | 0.229 µM | 3.49 µM | 0.111 µM | 44.1 µM | 0.41 µM | 18.1 µM | 0.098 µM | 26.9 µM | 0.029 µM | > 100 µM |
| C/C=C(\C)CC/C=C/CO[Si](C)(C)C(C)(C)C |  | > 100 µM |  | > 100 µM |  | > 100 µM |  | > 100 µM |  | > 100 µM |  | > 100 µM |  | > 100 µM |  | > 100 µM |  | > 100 µM |  | > 100 µM |
| CC[C@H](C)[C@H]1O[C@]2(C=C[C@@H]1C)C[C@@H]1C[C@@H](C/C=C(\C)[C@@H](O[C@H]3C[C@H](OC)[C@@H](O[C@H]4C[C@H](OC)[C@@H](NC)[C@H](C)O4)[C@H](C)O3)[C@@H](C)/C=C/C=C3\CO[C@@H]4[C@H](O)C(C)=C[C@@H](C(=O)O1)[C@]34O)O2 | 1.89 µM | 5.02 µM | 4.27 µM | 16.9 µM | 1.73 µM | 3.47 µM | 1.99 µM | 4.28 µM | 2.78 µM | 11.7 µM | 1.81 µM | 3.37 µM | 1.85 µM | 3.69 µM | 3.1 µM | 11.4 µM | 3.63 µM | 13.9 µM | 1.97 µM | 4.22 µM |
| Cc1ccc(C(=O)Nc2ccc(CN3CCN(C)CC3)c(C(F)(F)F)c2)cc1C#Cc1cnc(N)c2ccccc12 | 0.328 µM | 1.05 µM | 0.769 µM | 1.47 µM | 0.479 µM | 1.15 µM | 0.565 µM | 1.25 µM | 0.703 µM | 1.72 µM | 0.729 µM | 1.41 µM | 0.248 µM | 0.951 µM | 0.377 µM | 1.08 µM | 0.684 µM | 7.9 µM | 0.005 µM | 0.61 µM |
| O=C(O)[C@@H]1CCCCN1Cc1cc2cc3c(cc2c2cc(OCc4ccccc4)ccc12)OCO3 | 3.6 µM | 33.7 µM | 2.31 µM | 8.86 µM | 2.21 µM | 7.28 µM | 1.49 µM | 3.08 µM | 16.4 µM | 38.3 µM | 3.87 µM | 16.6 µM | 2.8 µM | 9.41 µM | 4.24 µM | 25.5 µM | 6.47 µM | 34.3 µM | 36.7 µM | > 100 µM |
